According to the supplement of paper PMC10307832:

How the values were obtained:
Test in all cases: relative viability (nuclei count vs DMSO), 5 days (fraction); higher = more cells survive
EMC-BAC-2 = test system: EMC-BAC-2
Summary of the method: (§1)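 Relative viability is defined as nuclei in treated wells over nuclei in vehicle wells. Duplicate plates were run and medians reported. Lung cancer cell lines in 1536-well plates were dosed by pin tool one day after seeding, with one drug or with a fixed anchor-drug dose plus five library-drug doses (not always all listed) in √10 steps, and nuclei were counted after 5 days.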

EPLC-272H = test system: EPLC-272H
Summary of the method: as §1

HCC-44 = test system: HCC-44
Summary of the method: as §1

HOP-62 = test system: HOP-62
Summary of the method: as §1

LOU-NH91 = test system: LOU-NH91
Summary of the method: as §1

NCI-H1437 = test system: NCI-H1437
Summary of the method: as §1

NCI-H1793 = test system: NCI-H1793
Summary of the method: as §1

NCI-H2009 = test system: NCI-H2009
Summary of the method: as §1

NCI-H2023 = test system: NCI-H2023
Summary of the method: as §1

NCI-H2126 = test system: NCI-H2126
Summary of the method: as §1

NCI-H2170 = test system: NCI-H2170
Summary of the method: as §1

NCI-H2347 = test system: NCI-H2347
Summary of the method: as §1

NCI-H23 = test system: NCI-H23
Summary of the method: as §1

NCI-H2405 = test system: NCI-H2405
Summary of the method: as §1

NCI-H460 = test system: NCI-H460
Summary of the method: as §1

NCI-H520 = test system: NCI-H520
Summary of the method: as §1

NCI-H647 = test system: NCI-H647
Summary of the method: as §1

NCI-H650 = test system: NCI-H650
Summary of the method: as §1

NCI-H727 = test system: NCI-H727
Summary of the method: as §1

SW 1573 = test system: SW 1573
Summary of the method: as §1

Q: Which results are given for `O=c1[nH]c2ccccc2n1C1CCN(CCCC(c2ccc(F)cc2)c2ccc(F)cc2)CC1` [Pimozide] + CS(=O)(=O)CCNCc1ccc(-c2ccc3ncnc(Nc4ccc(OCc5cccc(F)c5)c(Cl)c4)c3c2)o1 [Lapatinib] (partner 2 µM)?
A: relative viability (EMC-BAC-2; first compound 0.08 µM): 0.865; relative viability (EMC-BAC-2; first compound 0.253 µM): 0.832; relative viability (EMC-BAC-2; first compound 0.8 µM): 0.843; relative viability (EMC-BAC-2; first compound 2.53 µM): 0.885; relative viability (EMC-BAC-2; first compound 8 µM): 0.868; relative viability (EPLC-272H; first compound 0.08 µM): 0.819; relative viability (EPLC-272H; first compound 0.253 µM): 0.945; relative viability (EPLC-272H; first compound 0.8 µM): 0.716; relative viability (EPLC-272H; first compound 2.53 µM): 0.809; relative viability (EPLC-272H; first compound 8 µM): 0.689; relative viability (HCC-44; first compound 0.08 µM): 0.952; relative viability (HCC-44; first compound 0.253 µM): 1.08; relative viability (HCC-44; first compound 0.8 µM): 0.975; relative viability (HCC-44; first compound 2.53 µM): 0.96; relative viability (HCC-44; first compound 8 µM): 0.888; relative viability (HOP-62; first compound 0.08 µM): 0.917; relative viability (HOP-62; first compound 0.253 µM): 1.09; relative viability (HOP-62; first compound 2.53 µM): 0.995; relative viability (HOP-62; first compound 8 µM): 1.06; relative viability (LOU-NH91; first compound 0.08 µM): 0.736; relative viability (LOU-NH91; first compound 0.253 µM): 0.694; relative viability (LOU-NH91; first compound 0.8 µM): 0.751; relative viability (LOU-NH91; first compound 2.53 µM): 0.833; relative viability (LOU-NH91; first compound 8 µM): 0.785; relative viability (NCI-H1437; first compound 0.08 µM): 0.858; relative viability (NCI-H1437; first compound 0.253 µM): 0.849; relative viability (NCI-H1437; first compound 0.8 µM): 0.801; relative viability (NCI-H1437; first compound 2.53 µM): 0.636; relative viability (NCI-H1437; first compound 8 µM): 0.539; relative viability (NCI-H1793; first compound 0.08 µM): 0.785; relative viability (NCI-H1793; first compound 0.253 µM): 0.641; relative viability (NCI-H1793; first compound 0.8 µM): 0.593; relative viability (NCI-H1793; first compound 2.53 µM): 0.481; relative viability (NCI-H1793; first compound 8 µM): 0.654; relative viability (NCI-H2009; first compound 0.08 µM): 0.955; relative viability (NCI-H2009; first compound 0.253 µM): 0.977; relative viability (NCI-H2009; first compound 0.8 µM): 0.861; relative viability (NCI-H2009; first compound 2.53 µM): 0.715; relative viability (NCI-H2009; first compound 8 µM): 0.763; relative viability (NCI-H2023; first compound 0.08 µM): 0.793; relative viability (NCI-H2023; first compound 0.253 µM): 0.964; relative viability (NCI-H2023; first compound 0.8 µM): 0.592; relative viability (NCI-H2023; first compound 2.53 µM): 0.729; relative viability (NCI-H2023; first compound 8 µM): 0.412; relative viability (NCI-H2126; first compound 0.08 µM): 0.743; relative viability (NCI-H2126; first compound 0.253 µM): 0.675; relative viability (NCI-H2126; first compound 0.8 µM): 0.708; relative viability (NCI-H2126; first compound 2.53 µM): 0.724; relative viability (NCI-H2126; first compound 8 µM): 0.766; relative viability (NCI-H2170; first compound 0.08 µM): 0.277; relative viability (NCI-H2170; first compound 0.253 µM): 0.278; relative viability (NCI-H2170; first compound 0.8 µM): 0.276; relative viability (NCI-H2170; first compound 2.53 µM): 0.283; relative viability (NCI-H2170; first compound 8 µM): 0.272; relative viability (NCI-H2347; first compound 0.08 µM): 0.834; relative viability (NCI-H2347; first compound 0.253 µM): 0.92; relative viability (NCI-H2347; first compound 0.8 µM): 0.771; relative viability (NCI-H2347; first compound 2.53 µM): 0.926; relative viability (NCI-H2347; first compound 8 µM): 0.978; relative viability (NCI-H23; first compound 0.08 µM): 0.938; relative viability (NCI-H23; first compound 0.253 µM): 1.01; relative viability (NCI-H23; first compound 0.8 µM): 1.06; relative viability (NCI-H23; first compound 2.53 µM): 0.847; relative viability (NCI-H23; first compound 8 µM): 0.922; relative viability (NCI-H2405; first compound 0.08 µM): 1.02; relative viability (NCI-H2405; first compound 0.253 µM): 0.833; relative viability (NCI-H2405; first compound 0.8 µM): 0.984; relative viability (NCI-H2405; first compound 2.53 µM): 1.04; relative viability (NCI-H2405; first compound 8 µM): 0.79; relative viability (NCI-H460; first compound 0.08 µM): 1.06; relative viability (NCI-H460; first compound 0.253 µM): 0.859; relative viability (NCI-H460; first compound 0.8 µM): 0.949; relative viability (NCI-H460; first compound 2.53 µM): 0.856; relative viability (NCI-H460; first compound 8 µM): 0.826; relative viability (NCI-H520; first compound 0.08 µM): 0.863; relative viability (NCI-H520; first compound 0.253 µM): 0.922; relative viability (NCI-H520; first compound 0.8 µM): 0.621; relative viability (NCI-H520; first compound 2.53 µM): 0.821; relative viability (NCI-H520; first compound 8 µM): 0.776; relative viability (NCI-H647; first compound 0.08 µM): 1.18; relative viability (NCI-H647; first compound 0.253 µM): 1.03; relative viability (NCI-H647; first compound 0.8 µM): 0.973; relative viability (NCI-H647; first compound 2.53 µM): 0.964; relative viability (NCI-H647; first compound 8 µM): 0.58; relative viability (NCI-H650; first compound 0.08 µM): 1.03; relative viability (NCI-H650; first compound 0.253 µM): 0.861; relative viability (NCI-H650; first compound 0.8 µM): 0.694; relative viability (NCI-H650; first compound 2.53 µM): 0.716; relative viability (NCI-H650; first compound 8 µM): 0.835; relative viability (NCI-H727; first compound 0.08 µM): 0.8; relative viability (NCI-H727; first compound 0.253 µM): 0.922; relative viability (NCI-H727; first compound 0.8 µM): 0.85; relative viability (NCI-H727; first compound 2.53 µM): 0.754; relative viability (NCI-H727; first compound 8 µM): 0.769; relative viability (SW 1573; first compound 0.08 µM): 1.11; relative viability (SW 1573; first compound 0.253 µM): 1.12; relative viability (SW 1573; first compound 0.8 µM): 1.12; relative viability (SW 1573; first compound 2.53 µM): 1.16; relative viability (SW 1573; first compound 8 µM): 1.11
